# Results taken from patent publication US20240085426A1, “TRIPLE QUADRUPOLE-BASED MULTIPLE REACTION MONITORING FOR CLINICAL THERAPEUTIC RESPONSE PREDICTION IN CANCER” (NATIONAL CANCER CENTER, priority 2020, published 2024).
# What was measured:
# KATO-III cell line = test: 72-hour MTT experiment in KATO-III gastric cancer cell line; assay type: cell-based; settings: Homo sapiens, FGFR2-amplified cell line
# SNU-5 cells = test: 72-hour MTT experiment in SNU-5 gastric cancer cell line; assay type: cell-based; settings: Homo sapiens, SNU-5, MET-amplified cell line
IC50 (KATO-III cell line) [nM],IC50 (SNU-5 cells) [nM],Compound
22.6,17.5,C[C@@H](Oc1cc(-c2cnn(C3CCNCC3)c2)cnc1N)c1c(Cl)ccc(F)c1Cl [crizotinib]
31,> 40,COCc1c(-c2cc3cc(C)cc(OC)c3s2)c2c(N)ncnn2c1CN1CCNC(=O)C1 [rogaratinib]
